Laboratory results as given in the NIST ThermoML archive (doi:10.1016/j.jct.2011.12.035).
Numbers after ± are expanded uncertainties.

Assay: xn = mol fraction of the nth substance listed
Conditions: Gas, Buoyancy - hydrostatic balance with magnetic suspension - one sinker

N#N [nitrogen] + O=C=O
Conditions	mass density [kg/m3]
250.01 K, 994.48 kPa, x2 = 0.2	15.21 ± 0.037
250.02 K, 1979.3 kPa, x2 = 0.2	30.827 ± 0.075
250.02 K, 4032.4 kPa, x2 = 0.2	65.204 ± 0.16
250.02 K, 6013.2 kPa, x2 = 0.2	100.543 ± 0.24
250.02 K, 8000.9 kPa, x2 = 0.2	137.785 ± 0.33
250.02 K, 10004 kPa, x2 = 0.2	176.401 ± 0.43
250.02 K, 12010 kPa, x2 = 0.2	215.101 ± 0.52
250.02 K, 14018 kPa, x2 = 0.2	252.741 ± 0.61
250.02 K, 16027 kPa, x2 = 0.2	288.385 ± 0.7
250.02 K, 18039 kPa, x2 = 0.2	321.449 ± 0.78
250.02 K, 19633 kPa, x2 = 0.2	345.629 ± 0.83
250.04 K, 2996.3 kPa, x2 = 0.2	47.559 ± 0.12
250.04 K, 4997.5 kPa, x2 = 0.2	82.144 ± 0.2
250.05 K, 488.24 kPa, x2 = 0.2	7.397 ± 0.018
250.05 K, 997.91 kPa, x2 = 0.2	15.262 ± 0.037
250.05 K, 6997.7 kPa, x2 = 0.2	118.767 ± 0.29
250.05 K, 8998.8 kPa, x2 = 0.2	156.893 ± 0.38
250.05 K, 11001 kPa, x2 = 0.2	195.63 ± 0.47
250.05 K, 13005 kPa, x2 = 0.2	233.864 ± 0.57
250.05 K, 15008 kPa, x2 = 0.2	270.511 ± 0.65
250.05 K, 17012 kPa, x2 = 0.2	304.796 ± 0.74
250.05 K, 17639 kPa, x2 = 0.2	314.981 ± 0.76
274.99 K, 998.23 kPa, x2 = 0.2	13.8 ± 0.034
274.99 K, 1987.8 kPa, x2 = 0.2	27.804 ± 0.067
274.99 K, 3995.6 kPa, x2 = 0.2	57.18 ± 0.14
274.99 K, 5997.2 kPa, x2 = 0.2	87.563 ± 0.21
274.99 K, 7998.9 kPa, x2 = 0.2	118.772 ± 0.29
274.99 K, 10000 kPa, x2 = 0.2	150.404 ± 0.36
274.99 K, 12005 kPa, x2 = 0.2	182.017 ± 0.44
274.99 K, 14006 kPa, x2 = 0.2	213.01 ± 0.52
274.99 K, 16009 kPa, x2 = 0.2	243.011 ± 0.59
274.99 K, 18043 kPa, x2 = 0.2	272.044 ± 0.66
274.99 K, 19430 kPa, x2 = 0.2	290.888 ± 0.71
275.02 K, 996.58 kPa, x2 = 0.501	16.162 ± 0.039
275.02 K, 1993.3 kPa, x2 = 0.501	33.323 ± 0.081
275.02 K, 2996.6 kPa, x2 = 0.501	51.754 ± 0.13
275.02 K, 3997.4 kPa, x2 = 0.501	71.374 ± 0.17
275.02 K, 4998.7 kPa, x2 = 0.501	92.411 ± 0.23
275.02 K, 5999.5 kPa, x2 = 0.501	114.98 ± 0.28
275.02 K, 7003.4 kPa, x2 = 0.501	139.278 ± 0.34
275.02 K, 8006 kPa, x2 = 0.501	165.225 ± 0.4
275.02 K, 9125.5 kPa, x2 = 0.501	196.081 ± 0.48
275.02 K, 10029 kPa, x2 = 0.501	222.169 ± 0.54
275.02 K, 11018 kPa, x2 = 0.501	251.523 ± 0.61
275.02 K, 12025 kPa, x2 = 0.501	281.541 ± 0.69
275.02 K, 13025 kPa, x2 = 0.501	310.916 ± 0.76
275.03 K, 14032 kPa, x2 = 0.501	339.405 ± 0.82
275.03 K, 15032 kPa, x2 = 0.501	366.266 ± 0.89
275.03 K, 15926 kPa, x2 = 0.501	388.806 ± 0.94
275.04 K, 17027 kPa, x2 = 0.501	414.634 ± 1
275.04 K, 17563 kPa, x2 = 0.501	426.437 ± 1
299.95 K, 2996.2 kPa, x2 = 0.2	38.386 ± 0.093
299.95 K, 4996.3 kPa, x2 = 0.2	64.833 ± 0.16
299.95 K, 6997.1 kPa, x2 = 0.2	91.756 ± 0.22
299.95 K, 8997.6 kPa, x2 = 0.2	118.906 ± 0.29
299.95 K, 11032 kPa, x2 = 0.2	146.5 ± 0.35
299.95 K, 13037 kPa, x2 = 0.2	173.362 ± 0.42
299.95 K, 15002 kPa, x2 = 0.2	199.149 ± 0.48
299.95 K, 17077 kPa, x2 = 0.2	225.549 ± 0.55
299.95 K, 18151 kPa, x2 = 0.2	238.85 ± 0.58
299.96 K, 492.88 kPa, x2 = 0.2	6.193 ± 0.015
299.96 K, 984.74 kPa, x2 = 0.2	12.423 ± 0.03
299.96 K, 995.87 kPa, x2 = 0.501	14.686 ± 0.036
299.96 K, 15998 kPa, x2 = 0.501	308.658 ± 0.75
299.97 K, 1995.1 kPa, x2 = 0.501	30.061 ± 0.073
299.97 K, 2998.8 kPa, x2 = 0.501	46.195 ± 0.11
299.97 K, 4000.2 kPa, x2 = 0.501	62.993 ± 0.15
299.97 K, 5015.8 kPa, x2 = 0.501	80.785 ± 0.2
299.97 K, 6023.7 kPa, x2 = 0.501	99.216 ± 0.24
299.97 K, 7004.9 kPa, x2 = 0.501	117.9 ± 0.29
299.97 K, 8009.1 kPa, x2 = 0.501	137.74 ± 0.34
299.97 K, 9014.3 kPa, x2 = 0.501	158.299 ± 0.39
299.97 K, 9993.3 kPa, x2 = 0.501	178.967 ± 0.43
299.97 K, 9996.5 kPa, x2 = 0.501	178.959 ± 0.43
299.97 K, 10996 kPa, x2 = 0.501	200.469 ± 0.49
299.97 K, 11995 kPa, x2 = 0.501	222.215 ± 0.54
299.97 K, 12998 kPa, x2 = 0.501	244.208 ± 0.59
299.97 K, 13996 kPa, x2 = 0.501	266 ± 0.65
299.97 K, 14996 kPa, x2 = 0.501	287.528 ± 0.7
299.97 K, 16996 kPa, x2 = 0.501	329.04 ± 0.8
299.97 K, 17997 kPa, x2 = 0.501	348.774 ± 0.84
299.97 K, 19020 kPa, x2 = 0.501	368.091 ± 0.89
299.97 K, 19970 kPa, x2 = 0.501	385.259 ± 0.93
324.96 K, 1994 kPa, x2 = 0.2	23.265 ± 0.056
324.96 K, 1994.1 kPa, x2 = 0.2	23.265 ± 0.056
324.96 K, 3976.6 kPa, x2 = 0.2	46.775 ± 0.11
324.96 K, 5997.1 kPa, x2 = 0.2	70.986 ± 0.17
324.96 K, 7997.5 kPa, x2 = 0.2	95.062 ± 0.23
324.96 K, 9999.3 kPa, x2 = 0.2	119.106 ± 0.29
324.96 K, 12001 kPa, x2 = 0.2	142.924 ± 0.35
324.96 K, 14002 kPa, x2 = 0.2	166.343 ± 0.4
324.96 K, 16004 kPa, x2 = 0.2	189.249 ± 0.46
324.96 K, 18002 kPa, x2 = 0.2	211.461 ± 0.51
324.96 K, 19964 kPa, x2 = 0.2	232.536 ± 0.56
324.98 K, 974.07 kPa, x2 = 0.501	13.176 ± 0.035
324.98 K, 1991.5 kPa, x2 = 0.501	27.367 ± 0.066
324.98 K, 2996.4 kPa, x2 = 0.501	41.83 ± 0.1
324.98 K, 3995.3 kPa, x2 = 0.501	56.615 ± 0.14
324.98 K, 4997.2 kPa, x2 = 0.501	71.872 ± 0.17
324.98 K, 5995.1 kPa, x2 = 0.501	87.485 ± 0.21
324.98 K, 6998.1 kPa, x2 = 0.501	103.583 ± 0.25
324.98 K, 7998.2 kPa, x2 = 0.501	120.002 ± 0.29
324.98 K, 9001.9 kPa, x2 = 0.501	136.826 ± 0.33
